These results are taken from PubChem BioAssay (NCI).

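Cells were grown in 96-well plates and exposed to each compound for 48 hours at five concentrations; endpoints were interpolated linearly between bracketing concentrations, or set to the highest concentration if not reached. TGI is the concentration that stops growth completely.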 Bounds are passed on as bounds.

Holding throughout (assay): NCI tumour cell line growth inhibition, 48 h
Assay [1] relates to EKVX NSCLC.
Assay [2] deals with SNB-75 CNS.
Assay [3] concerns IGROV1 ovarian.
The subject of assay [4] is KM12 colon.
Assay [5] deals with HCC-2998 colon.
Assay [6] relates to NCI/ADR-RES ovarian.
Assay [7] deals with A498 renal.
Assay [8] deals with HT29 colon.
In assay [9] the test system is T-47D breast.
Assay [10] has as its system MCF7 breast.
Assay [11] relates to SF-295 CNS.
The test system of assay [12] is BT-549 breast.
Assay [13] has as its system MOLT-4 leukemia.

On to `O=C1c2ccccc2-c2ccc(N(Cc3ccc(Br)cc3)Cc3ccc(Br)cc3)cc21`, for which the TGI in assay [1], in [2], in assay [3], in assay [4], in assay [5] and in assay [6] was over 100 µM each time. Also, the TGI in assay [7], in assay [8], in assay [9], in [10], in assay [11] and in assay [12] was over 100 µM throughout. In addition, the TGI in assay [13] was over 100 µM.

Consider `CN(C)c1ccc(C=Nc2ccc(-c3nc4ccccc4o3)cc2)cc1`, for which the TGI was 87.1 µM in assay [1]; over 100 µM in assay [2]; over 100 µM in assay [3]; over 100 µM in [4]; 47.3 µM in [5]; over 100 µM in [6]. Further, the TGI was over 100 µM in assay [7]; over 100 µM in [8]; 58.3 µM in [9]; over 100 µM in assay [10]; over 100 µM in assay [12]; 78.8 µM in assay [13].

On to `CSc1nc2ccccc2c(=O)n1-c1cccc(C)c1`, for which the TGI in assay [1] is over 100 µM; in assay [2], over 100 µM; in [3], over 100 µM; in assay [4], over 100 µM; in [5], 35.1 µM; in assay [6] it was over 100 µM. In addition, the TGI in assay [7] was 92 µM; in assay [8], over 100 µM; in assay [9], over 100 µM; in [10] it was over 100 µM; in [11], over 100 µM; in assay [12], over 100 µM. This compound showed a TGI in [13] of 98.2 µM.

Consider `O=[N+]([O-])c1ccc2nc(/C=C(\O)c3ccccc3)c(/C=C(\O)c3ccc(Cl)cc3)nc2c1`, for which the TGI in assay [1] was over 100 µM; in assay [2], 64.9 µM; in [3], over 100 µM; in assay [4], over 100 µM; in assay [5], over 100 µM; in assay [6], over 100 µM. In addition, the TGI in assay [7], in [8], in assay [9], in [10], in assay [11] and in [12] was over 100 µM throughout. The compound further displayed a TGI in [13] of over 100 µM.

For the compound `CCCNc1c(Cl)cc(Cl)c2[nH]c3ccccc3c(=O)c12`, the TGI in [1], in [2], in assay [3], in assay [4], in assay [5] and in assay [6] was over 100 µM each time. The TGI in [7], in assay [8], in assay [9], in [10], in assay [11] and in assay [12] was over 100 µM in each case. In addition, in assay [13], the TGI is over 100 µM.

For `COc1ccc(C(c2ccccc2)N2C(=O)CCC2C(=O)O)cc1OC` (centres undefined), the TGI in assay [1], in assay [2], in assay [3], in [4], in [5] and in assay [6] was over 100 µM throughout. Besides, the TGI in [7], in assay [8], in assay [9], in assay [10], in [11] and in [12] was over 100 µM each time. The TGI in assay [13] was over 100 µM.

For the compound `Cc1[nH]c2ncn(N)c(=N)c2c1Cc1ccccc1`, the TGI in assay [1], in [2], in [3], in [4], in assay [5] and in assay [6] was over 100 µM throughout. Moreover, the TGI in assay [7], in assay [8], in assay [9], in assay [10], in assay [11] and in assay [12] was over 100 µM in each case. The same compound came in with a TGI in assay [13] of over 100 µM.

In the case of `N#Cc1c(-c2ccccc2)cc(Nc2ccc(F)cc2)n2c1nc1ccccc12`, the TGI in assay [1] was over 29.1 µM; in assay [2], 6.76 µM; in [3] it was over 100 µM; in assay [4], over 100 µM; in assay [5] it was over 100 µM; in assay [6], 13 µM. Further, the TGI is 12 µM in [7]; 6.43 µM in [8]; 19 µM in [9]; 5.97 µM in assay [10]; over 29.6 µM in assay [11]; over 25.2 µM in assay [12]. In [13], this compound gave a TGI of over 100 µM.

For the compound `c1ncc(C23C4C5C6C4C2C6C53)[nH]1` (centres undefined), the TGI in assay [1], in assay [2], in [3], in assay [4], in [5] and in [6] was over 100 µM each time. Moreover, the TGI in assay [7], in assay [8], in assay [9], in assay [10], in assay [11] and in [12] was over 100 µM throughout. Besides, the TGI in assay [13] was over 100 µM.

For `Nc1nc(Cl)cc(NCC2(CO)CC(O)C2)n1` (centres undefined), the TGI in [1], in assay [2], in assay [3], in [4], in [5] and in assay [6] was over 100 µM in each case. The TGI in [7], in assay [8], in assay [9], in assay [10], in assay [11] and in assay [12] was over 100 µM each time. Also, the TGI in [13] is over 100 µM.
